{"source": "BindingDB's records for patent US117808", "about": "(Pfizer, 2023)", "molecular_target": "Protein kinase C beta type Isoform 2 (Homo sapiens, UniProt P05771)", "sequence (P05771 as listed by the source)": "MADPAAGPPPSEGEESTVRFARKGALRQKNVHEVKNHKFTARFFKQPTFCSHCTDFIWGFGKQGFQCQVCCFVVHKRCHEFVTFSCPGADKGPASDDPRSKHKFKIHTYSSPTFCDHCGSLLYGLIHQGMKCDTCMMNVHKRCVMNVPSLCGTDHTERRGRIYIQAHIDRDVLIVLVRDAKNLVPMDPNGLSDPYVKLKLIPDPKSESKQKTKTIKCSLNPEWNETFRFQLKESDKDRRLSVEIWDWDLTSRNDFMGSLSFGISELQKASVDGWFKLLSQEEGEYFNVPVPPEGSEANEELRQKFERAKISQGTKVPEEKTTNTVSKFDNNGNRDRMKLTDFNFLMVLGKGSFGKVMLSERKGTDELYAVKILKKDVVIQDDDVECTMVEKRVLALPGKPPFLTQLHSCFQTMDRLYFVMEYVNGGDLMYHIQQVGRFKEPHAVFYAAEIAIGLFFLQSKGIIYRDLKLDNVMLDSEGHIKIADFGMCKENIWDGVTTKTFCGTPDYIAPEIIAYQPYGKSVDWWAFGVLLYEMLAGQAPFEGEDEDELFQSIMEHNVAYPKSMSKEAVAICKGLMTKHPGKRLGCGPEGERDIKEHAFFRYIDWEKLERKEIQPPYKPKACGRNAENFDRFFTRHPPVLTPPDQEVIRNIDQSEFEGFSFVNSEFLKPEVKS", "assay": "Protein Kinase C beta 2 (PKCpII) Assay", "protocol": "Protein Kinase C beta 2 (PKCpII) catalyzes the production of ADP from ATP that accompanies the phosphoryl transfer to the PKC Pseudosubstrate peptide (A→S, RFARKGSLRQKNV). This transfer is coupled to the oxidation of β-NADH through the activities of Pyruvate Kinase (PK) and Lactate Dehydrogenase (LDH). β-NADH conversion to NAD+ is monitored by the decrease in absorbance at 340 nm (e=6.22 cm−1 mM−1) using a Molecular Devices SPECTRA max PLUS spectrophotometer.A typical assay was carried out on a 96-well, clear microtiter plate in a Molecular Devices spectrophotometer for 20 minutes at 30° C. in 0.1 mL of assay buffer containing 50 mM HEPES, pH 7.4, 5 nM PKC, 23 units of pyruvate kinase, 33 units of lactate dehydrogenase, 0.15 mM peptide, 0.1 mM ATP, 1 mM DTT, 4 mM PEP, 8 mM MgCl2, 0.3 mM NADH, […]), 10 mg/mL PS, 50 ng/mL PMA, 7.5% DMSO and from about 10,000 nM to 0.169 nM compound inhibitor. Stock solutions of 3-sn-phosphatidyl-L-serine (PS) and phorbol-12-myristate-13-acetate (PMA) were sonicated for 30 seconds just prior to addition to assay buffer and assays were initiated by the addition of 100 μM ATP.", "note": "pKi: −log10 of the molar value."}
{"compound": "Cc1ncc(F)c(Nc2n[nH]c3c2CN(C(=O)N2C[C@@H](C)N(C)C[C@@H]2C)C3(C)C)n1", "note": "[US11220518, Ex. No. H2]", "values": [{"measurement": "pKi", "result": 8.58}]}
